pIC50: −log10 of the molar value. Each block holds one molecule with its values, some of them ahead of it.
How the values were obtained:
[1] = test system: Erythropoietin in liver cancer cells Hep3B; experiment: Expression of erythropoietin in liver cancer cells Hep3B in vitro (EPO ELISA of supernatant); type: cell-based, Human
Protocol: The cells were adherent cultured overnight, and after discarding the used medium. In the 96-well culture plate, the cells were washed once with 0.5% FBS-containing DMEM medium. […] 0.5% FBS-containing DMEM medium was used instead of the drug solution as the control well. After incubation in a 37° C., 5% CO2 incubator for 24 h, the supernatant was taken as a sample and frozen at −20° C. for later use. An Elisa kit (abeam) was used to detect EPO in the cell supernatant. A microplate reader was used to detect the OD value at 450/620 nm.

HIF-1α = experiment: Expression of HIF-1α protein in Hep3B cells (western blot, grayscale analysis); type: cell-based, Human
Protocol: (§1) A test compound was dissolved in dimethyl sulfoxide into a 100 mM stock solution, and then was diluted with 0.5% FBS-containing DMEM medium into 30 μM, 10 μM and 3 μM for later use. Human liver cancer cells Hep3B were seeded in a six-well plate at a density of 2.25*10^5 cells/well, 2 mL per well. After cultivation overnight, the cells were treated with compounds at different concentrations for 2 h. The proteins were extracted for western blot and further grayscale analysis.

HIF-2α = experiment: Expression of HIF-2α protein in Hep3B cells (western blot, grayscale analysis); type: cell-based, Human
Protocol: as §1

erythropoietin = experiment: Expression of erythropoietin in vivo (plasma EPO ELISA after single oral dose); conditions: once; for EPO OD value: plasma 6 hours after administration; for Promotion of expression of erythropoietin in vivo: at 10 mg/kg;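 on all read-outs here: male C57 mice given compound by mouth, five animals per treatment group, with EPO in plasma measured by ELISA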
Protocol: (2) 30 c57 mice, male, were divided into 6 groups, 5 mice in each treatment group. […] 6 hours after the administration, blood was taken, and plasma was collected for EPO detection with an ELISA kit (R&D Co.).

CYP1A2 = CYP1A2 (Homo sapiens (Human), UniProt P05177); type: in vitro ADME
From the text: (§2) The compounds of the present disclosure were subjected to the CYP450 enzyme inhibition assay.

hERG channels = hERG channels (Homo sapiens (Human), UniProt Q12809); experiment: cell-based; type: cell-based
Protocol: Whole-cell patch clamp technique was used to record hERG current. A cell suspension was added to a 35 mm Petri dish, and the dish was then placed on an inverted microscope stage. After the adherence of cells, they were perfused with extracellular fluid at a flow rate of 1-2 mL/min. A glass microelectrode was drawn by a microelectrode puller in two steps, and the pipette tip resistance was between 2-5 MΩ. After establishing the whole cell recording, the clamp potential was held at −80 mV, followed by depolarization to +60 mV when given voltage stimulation and then repolarization to −50 mV to elicit hERG tail current. All recordings were performed after the current was stable. Extracellular perfusion administration started from a low concentration, staying for 5-10 min at each concentration until the current was stable, and then cells were further perfused with the next concentration.

reticulocytes = experiment: Effect on reticulocytes of normal mice; type: in vivo, Balb/c mice; design: Reticulocytes (RETIC), average: unit not given here; conditions: 10 mg/kg p.o., once; 72 h after administration
Protocol: 72 Balb/c mice, male, were divided into 12 groups, 6 mice in each treatment group. In the positive drug control groups: the mice in the FG-4592 treatment groups were orally administered once, at two doses of 10 mg/kg and 50 mg/kg, and the mice in the rhEPO treatment group was intraperitoneaily injected once, at a dose of 100 IU/kg. The compounds of the present disclosure were all orally administered once at a dose of 10 mg/kg. 72 h after the administration, blood was collected from the orbit of all animals, and subjected to EDTA-K2 anticoagulation. Then reticulocytes (RETIC) were counted with an automatic blood cell analyzer.

CYP2C19 = CYP2C19 (Homo sapiens (Human), UniProt P33261); experiment: CYP enzyme inhibition assay; type: in vitro ADME
From the text: as §2

CYP2C9 = CYP2C9 (Homo sapiens (Human), UniProt P11712); experiment: CYP enzyme inhibition assay; type: in vitro ADME
From the text: as §2

CYP2D6 = CYP2D6 (Homo sapiens (Human), UniProt P10635); experiment: CYP enzyme inhibition assay; type: in vitro ADME
From the text: as §2

CYP3A4-M = CYP3A4-M (Homo sapiens (Human), UniProt P08684); experiment: CYP enzyme inhibition assay; type: in vitro ADME
From the text: as §2

PHD3 = PHD3 (Homo sapiens (Human), UniProt Q9H6Z9); experiment: PHD enzyme assay (Eu-VBC TR-fluorescence); type: biochemical
Protocol: (§3) VHL/elongin B/elongin C were constructed, expressed and purified, and VHL was labeled. PHD1, PHD2 and PHD3 were constructed, expressed and purified. VBC protein was labeled with DELFIA Eu-Labeling Kit. A NeutrAvidin 96-well plate was blocked after the addition of 200 μL Blocker Casein to each well, followed by incubation for 30 min. Each well was washed 3 times by adding 200 μL of washing buffer each time. A 200 nM HIF-1a 556-574 solution was prepared with washing buffer, and 100 μL of the solution was added to each well, followed by incubation for 60 min. Each well was washed 3 times by adding 200 μL of washing buffer each time. A 1 mM Biotin solution was prepared with Blocker Casein, and 100 μL of the solution was added to each well, followed by incubation for 30 min. Each well was washed 3 times by adding 200 μL of washing buffer each time. A 20× compound solution was prepared with PHD reaction buffer, with the final concentration of DMSO being 1%. PHD solutions were prepared with PHD reaction buffer, and the concentrations of PHD1, 2, and 3 solutions were 10 ng/μL, 5 ng/μL, and 15 ng/μL, respectively. 95 μL of the PHD solution was added to each compound well, followed by the addition of 5 μL of the compound solution, 95 μL of the PHD solution was added to each full active well, followed by the addition of 5 μL of the PHD reaction buffer; and 100 μL of the PHD reaction buffer was added to each blank well. After mixing homogeneously, the wells were incubated for 60 min. Each well was washed 3 times by adding 200 μL of washing buffer each time A 1 ng/μL Eu-VBC solution was prepared with Eu-VBC binding buffer, and 100 μL of the solution was added to each well, followed by incubation for 60 min. Each well was washed 6 times by adding 200 μL DELFIA Wash Concentrate each time. 100 μL DELFIA Enhancement Solution was added to each well. A microplate reader was used to read TR-Fluorescence at Ex340 and Em615. The flurescence of the sample wells was recorded as FLUsample, the flurescence of the full active wells was recorded as FLU100%, and the flurescence of the blank well was recorded as FLU0%.

PHD1 = PHD1 (Homo sapiens (Human), UniProt Q96KS0); experiment: PHD enzyme assay (Eu-VBC TR-fluorescence); type: biochemical
Protocol: as §3

PHD2 = PHD2 (Homo sapiens (Human), UniProt Q9GZT9); experiment: PHD enzyme assay (Eu-VBC TR-fluorescence); type: biochemical
Protocol: as §3, with “A 200 nM HIF-1a 556-574 solution was prepared with washing buffer, and 100 μL of the solution was added to each well, followed by incubation for 60 min.” left out, “PHD solutions were prepared with PHD reaction buffer, and the concentrations of PHD1, 2, and 3 solutions were 10 ng/μL, 5 ng/μL, and 15 ng/μL, respectively. 95 μL of the PHD solution was added to each compound well, followed by the addition of 5 μL of the compound solution, 95 μL of the PHD solution was added to each full active well, followed by the addition of 5 μL of the PHD reaction buffer; and 100 μL of the PHD reaction buffer was added to each blank well.” left out, “A microplate reader was used to read TR-Fluorescence at Ex340 and Em615.” left out

[2] = 2 h, compound at 30 μM, 10 μM and 3 μM

Sequence of hERG channels (Q12809 whole entry, the tested form may be a part): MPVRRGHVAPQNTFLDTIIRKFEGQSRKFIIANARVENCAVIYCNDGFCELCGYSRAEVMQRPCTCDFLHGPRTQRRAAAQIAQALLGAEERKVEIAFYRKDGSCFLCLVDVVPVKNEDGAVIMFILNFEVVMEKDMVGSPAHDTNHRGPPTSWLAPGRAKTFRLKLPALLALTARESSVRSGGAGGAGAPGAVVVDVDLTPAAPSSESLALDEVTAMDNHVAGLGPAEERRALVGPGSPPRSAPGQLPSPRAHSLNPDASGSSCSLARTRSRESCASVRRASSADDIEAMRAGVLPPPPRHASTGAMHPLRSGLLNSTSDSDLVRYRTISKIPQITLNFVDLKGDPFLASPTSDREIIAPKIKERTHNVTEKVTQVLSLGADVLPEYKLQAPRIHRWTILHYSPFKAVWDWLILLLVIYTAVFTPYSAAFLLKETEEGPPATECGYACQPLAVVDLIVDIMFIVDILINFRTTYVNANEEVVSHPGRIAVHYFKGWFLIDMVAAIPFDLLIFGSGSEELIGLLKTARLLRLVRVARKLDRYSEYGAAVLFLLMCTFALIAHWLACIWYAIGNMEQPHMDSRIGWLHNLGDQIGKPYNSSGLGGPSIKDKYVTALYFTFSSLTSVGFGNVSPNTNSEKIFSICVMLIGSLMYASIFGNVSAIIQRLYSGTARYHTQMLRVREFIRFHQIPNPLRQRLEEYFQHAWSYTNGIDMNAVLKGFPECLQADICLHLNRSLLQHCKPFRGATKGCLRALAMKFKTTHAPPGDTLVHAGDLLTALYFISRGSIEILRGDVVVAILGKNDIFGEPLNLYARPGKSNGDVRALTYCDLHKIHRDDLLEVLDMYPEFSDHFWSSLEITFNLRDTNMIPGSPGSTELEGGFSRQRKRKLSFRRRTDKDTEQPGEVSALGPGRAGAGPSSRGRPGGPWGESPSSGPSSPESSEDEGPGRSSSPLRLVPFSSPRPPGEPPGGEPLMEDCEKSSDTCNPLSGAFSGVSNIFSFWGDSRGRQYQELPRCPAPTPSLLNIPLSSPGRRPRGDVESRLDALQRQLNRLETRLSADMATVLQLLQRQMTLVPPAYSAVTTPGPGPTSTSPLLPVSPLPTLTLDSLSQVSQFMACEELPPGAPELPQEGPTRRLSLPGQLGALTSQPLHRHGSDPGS
Sequence of CYP1A2 (P05177 whole entry): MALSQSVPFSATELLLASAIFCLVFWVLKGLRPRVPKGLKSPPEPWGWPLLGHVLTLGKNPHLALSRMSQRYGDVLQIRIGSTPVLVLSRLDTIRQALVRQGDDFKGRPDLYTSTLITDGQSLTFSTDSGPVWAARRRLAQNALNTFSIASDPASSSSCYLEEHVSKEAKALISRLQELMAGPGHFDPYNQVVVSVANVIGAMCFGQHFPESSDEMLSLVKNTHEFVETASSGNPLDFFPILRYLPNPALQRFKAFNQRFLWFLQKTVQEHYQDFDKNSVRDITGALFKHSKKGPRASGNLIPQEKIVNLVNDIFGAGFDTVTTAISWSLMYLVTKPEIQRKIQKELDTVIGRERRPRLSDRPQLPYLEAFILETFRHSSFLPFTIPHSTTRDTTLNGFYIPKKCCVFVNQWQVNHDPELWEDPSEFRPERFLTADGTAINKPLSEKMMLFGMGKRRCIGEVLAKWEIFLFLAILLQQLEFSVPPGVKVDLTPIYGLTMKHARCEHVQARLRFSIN
Sequence of CYP2C19 (P33261 whole entry): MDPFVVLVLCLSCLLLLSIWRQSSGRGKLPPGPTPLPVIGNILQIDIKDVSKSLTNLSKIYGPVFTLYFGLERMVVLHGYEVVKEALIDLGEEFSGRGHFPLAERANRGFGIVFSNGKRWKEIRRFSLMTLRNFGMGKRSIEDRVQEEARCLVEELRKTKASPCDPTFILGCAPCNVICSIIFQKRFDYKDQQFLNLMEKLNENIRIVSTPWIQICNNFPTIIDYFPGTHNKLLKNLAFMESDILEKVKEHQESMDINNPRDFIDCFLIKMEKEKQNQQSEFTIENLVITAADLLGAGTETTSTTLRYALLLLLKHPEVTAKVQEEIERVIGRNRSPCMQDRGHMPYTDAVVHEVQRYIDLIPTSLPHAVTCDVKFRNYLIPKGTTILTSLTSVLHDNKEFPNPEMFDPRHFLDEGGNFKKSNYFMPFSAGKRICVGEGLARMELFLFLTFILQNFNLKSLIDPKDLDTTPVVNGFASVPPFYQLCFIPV
Sequence of CYP2C9 (P11712 whole entry): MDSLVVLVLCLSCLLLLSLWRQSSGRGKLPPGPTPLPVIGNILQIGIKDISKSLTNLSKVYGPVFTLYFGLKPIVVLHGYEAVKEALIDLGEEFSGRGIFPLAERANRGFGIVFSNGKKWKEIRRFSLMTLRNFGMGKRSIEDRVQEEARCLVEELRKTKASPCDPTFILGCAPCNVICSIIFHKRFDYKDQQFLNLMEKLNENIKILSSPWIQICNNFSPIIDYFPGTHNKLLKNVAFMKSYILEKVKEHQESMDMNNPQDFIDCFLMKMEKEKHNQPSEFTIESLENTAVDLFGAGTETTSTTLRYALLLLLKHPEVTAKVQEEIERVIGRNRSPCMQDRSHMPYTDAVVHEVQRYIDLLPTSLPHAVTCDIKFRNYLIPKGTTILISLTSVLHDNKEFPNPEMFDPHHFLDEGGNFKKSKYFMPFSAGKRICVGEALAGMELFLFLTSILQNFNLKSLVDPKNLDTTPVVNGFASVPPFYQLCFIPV
Sequence of PHD1 (Q96KS0 whole entry): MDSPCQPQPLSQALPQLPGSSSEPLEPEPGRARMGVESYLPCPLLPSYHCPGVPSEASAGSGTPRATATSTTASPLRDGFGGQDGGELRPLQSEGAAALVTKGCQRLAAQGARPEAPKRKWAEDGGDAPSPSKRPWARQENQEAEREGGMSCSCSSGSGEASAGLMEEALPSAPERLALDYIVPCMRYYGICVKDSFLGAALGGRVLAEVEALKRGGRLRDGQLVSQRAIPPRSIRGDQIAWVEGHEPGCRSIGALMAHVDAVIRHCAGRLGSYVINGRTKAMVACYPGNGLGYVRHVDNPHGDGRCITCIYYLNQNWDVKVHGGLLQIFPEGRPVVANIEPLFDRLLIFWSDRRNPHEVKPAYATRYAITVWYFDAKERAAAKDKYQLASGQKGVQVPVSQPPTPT
Sequence of CYP3A4-M (P08684 whole entry): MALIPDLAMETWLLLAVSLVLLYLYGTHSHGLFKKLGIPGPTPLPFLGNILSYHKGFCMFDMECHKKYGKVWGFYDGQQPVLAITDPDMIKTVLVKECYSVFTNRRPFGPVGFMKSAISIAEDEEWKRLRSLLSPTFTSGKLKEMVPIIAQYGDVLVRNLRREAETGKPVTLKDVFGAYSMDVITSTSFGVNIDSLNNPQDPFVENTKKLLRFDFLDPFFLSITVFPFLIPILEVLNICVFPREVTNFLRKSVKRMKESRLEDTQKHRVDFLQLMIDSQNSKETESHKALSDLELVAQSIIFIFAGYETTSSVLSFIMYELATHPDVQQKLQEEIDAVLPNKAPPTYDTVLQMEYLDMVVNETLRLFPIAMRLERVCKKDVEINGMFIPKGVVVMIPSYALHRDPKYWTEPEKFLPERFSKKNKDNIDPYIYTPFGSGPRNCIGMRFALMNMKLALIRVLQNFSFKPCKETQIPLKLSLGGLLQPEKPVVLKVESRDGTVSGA
Sequence of CYP2D6 (P10635 whole entry): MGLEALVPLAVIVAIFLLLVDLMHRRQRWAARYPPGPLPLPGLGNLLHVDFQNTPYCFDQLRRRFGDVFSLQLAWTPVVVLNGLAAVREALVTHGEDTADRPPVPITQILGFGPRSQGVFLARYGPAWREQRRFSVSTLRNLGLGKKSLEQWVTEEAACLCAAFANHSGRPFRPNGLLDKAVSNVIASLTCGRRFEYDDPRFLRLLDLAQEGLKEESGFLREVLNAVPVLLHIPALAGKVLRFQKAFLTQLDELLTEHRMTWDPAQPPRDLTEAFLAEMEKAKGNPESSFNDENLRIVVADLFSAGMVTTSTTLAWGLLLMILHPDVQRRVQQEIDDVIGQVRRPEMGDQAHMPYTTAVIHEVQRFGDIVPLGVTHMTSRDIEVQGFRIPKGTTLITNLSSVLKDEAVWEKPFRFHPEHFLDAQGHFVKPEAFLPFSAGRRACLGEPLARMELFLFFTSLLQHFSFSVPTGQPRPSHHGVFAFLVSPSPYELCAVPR
Sequence of PHD2 (Q9GZT9 whole entry): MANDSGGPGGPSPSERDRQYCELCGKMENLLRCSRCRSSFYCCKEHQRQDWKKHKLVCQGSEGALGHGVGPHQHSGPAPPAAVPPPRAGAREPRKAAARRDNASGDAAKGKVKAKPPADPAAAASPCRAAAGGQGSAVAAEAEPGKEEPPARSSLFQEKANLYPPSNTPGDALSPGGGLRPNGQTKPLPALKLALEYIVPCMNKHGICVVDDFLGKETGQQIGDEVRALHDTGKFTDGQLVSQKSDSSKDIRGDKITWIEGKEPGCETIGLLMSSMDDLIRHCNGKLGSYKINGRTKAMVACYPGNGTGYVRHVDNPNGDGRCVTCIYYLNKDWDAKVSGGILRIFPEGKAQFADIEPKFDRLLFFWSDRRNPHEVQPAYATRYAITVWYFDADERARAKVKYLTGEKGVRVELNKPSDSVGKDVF
Sequence of PHD3 (Q9H6Z9 whole entry): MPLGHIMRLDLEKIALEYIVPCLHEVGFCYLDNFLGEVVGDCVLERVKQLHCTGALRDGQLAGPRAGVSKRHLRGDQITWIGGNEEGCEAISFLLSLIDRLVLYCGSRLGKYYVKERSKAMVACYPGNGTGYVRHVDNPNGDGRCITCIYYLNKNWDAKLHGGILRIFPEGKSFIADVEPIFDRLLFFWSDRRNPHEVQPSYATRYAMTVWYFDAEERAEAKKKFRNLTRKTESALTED

Compound: O=C(O)CNC(=O)c1nc(Cl)c2nc(Oc3ccc(F)cc3)ccc2c1O [Link-130, 2-(2-(4-fluorophenoxy)-5-hydroxy-8-chloro-1,7-naphthyridine-6-formamido) Acetic Acid]
- EPO-enhancing effect compared with positive control drug FG4592 [1]: higher than that of the positive control drug FG4592
- EPO level of the compound of the present disclosure/EPO level of FG4592 ([1]; 24 h, compound at 100 μM and 10 μM, supernatant ELISA): C (C represents EPO ratio ≥ 1.3)
- HIF-1α protein expression compared with blank control (HIF-1α): higher than that of the blank control
- HIF-1α level of the compound of the present disclosure/HIF-1α level of blank control (HIF-1α; [2]): B (B represents 4.5 < protein ratio < 8.5)
- HIF-2α protein expression compared with blank control (HIF-2α): higher than that of the blank control
- HIF-2α level of the compound of the present disclosure/HIF-2α level of blank control (HIF-2α; [2]): B (B represents 4.5 < protein ratio < 8.5)
- EPO OD value (erythropoietin; 10 mg/kg): C (C represents 2<EPO OD value<3)
- EPO OD value (erythropoietin; 50 mg/kg): D (D represents EPO OD value>3)
- Promotion of expression of erythropoietin in vivo (erythropoietin): significantly promote the expression of erythropoietin

- pIC50 (CYP1A2): < 4.30
- pIC50 (CYP2C19): < 4.30
- pIC50 (CYP2C9): < 4.30
- pIC50 (CYP2D6): < 4.30
- pIC50 (CYP3A4-M): < 4.30
Compound: O=C(O)CNC(=O)c1nc(Cl)c2nc(Oc3ccccc3Cl)ccc2c1O [Link-124, 2-(2-(2-chlorophenoxy)-5-hydroxy-8-chloro-1,7-naphthyridine-6-formamido) Acetic Acid]
- EPO-enhancing effect compared with positive control drug FG4592 [1]: higher than that of the positive control drug FG4592
- HIF-1α protein expression compared with blank control (HIF-1α): higher than that of the blank control
- fold induction at 30 µM (HIF-1α; Homo sapiens, 2 h, compound at 30 μM, 10 μM and 3 μM, read-out: HIF-1α level of the compound of the present disclosure/HIF-1α level of blank control): 4.5 to 8.5
- pIC50 (hERG channels): < 4.52
- Inhibitory effect on hERG current at the highest test concentration (hERG channels; human, 30 μM): far from the IC50 value
- Reticulocytes (RETIC), average (reticulocytes): 6.80
- HIF-2α protein expression compared with blank control (HIF-2α): higher than that of the blank control
- fold induction at 30 µM (HIF-2α; Homo sapiens, 2 h, compound at 30 μM, 10 μM and 3 μM, read-out: HIF-2α level of the compound of the present disclosure/HIF-2α level of blank control): 4.5 to 8.5
- EPO OD value (erythropoietin; 10 mg/kg): D (D represents EPO OD value>3)
- EPO OD value (erythropoietin; 50 mg/kg): D (D represents EPO OD value>3)
- Promotion of expression of erythropoietin in vivo (erythropoietin): significantly promote the expression of erythropoietin

- IC50 (PHD3): 544 nM
- IC50 (PHD1): 452 nM
- IC50 (PHD2): 951 nM
Compound: O=C(O)CNC(=O)c1nc(Br)c2cc(Oc3ccccc3)ccc2c1O [Comparative Example 3, reference compound]
